Source: patent publication US4096257A, “Substituted imidazo [1,2-d]-as-triazines” (American Cyanamid Company, priority 1977, dated 1978)

System: Mouse Skin Phosphodiesterase (cyclic-AMP phosphodiesterase)
Experiment: mouse skin phosphodiesterase (PDE) inhibition test
Type: biochemical
Parameters: key to Mouse Skin Phosphodiesterase: Active: A compound is considered active if it inhibits more than theophylline, that is, to 50% of control at 1 mM concentration of compound, or to 80% of control of 0.05 mM concentration of compound
Details: for Mouse Skin Phosphodiesterase: hairless mouse epidermal PDE, 3H-cyclic AMP substrate, final concentration of test compounds 10 ug./ml

Mouse Skin Phosphodiesterase | Structure (SMILES) | inhibition of skin phosphodiesterase, % of control (0.05 mM concentration of compound) | inhibition of skin phosphodiesterase, % of control (1 mM concentration of compound)
Active | CCCc1n[nH]c(=O)c2nccn12 [5-n-propyl-imidazo[1,2-d]-as-triazin-8(7H)-one] | – | –
Active | O=c1[nH]nc(-c2ccccc2)n2ccnc12 [5-phenyl-imidazo[1,2-d]-as-triazin-8(7H)-one] | – | –
– | Cn1c(=O)c2[nH]cnc2n(C)c1=O [theophylline] | 80 % of control | 50 % of control
